Laboratory results reported in DBAASP.
≈ marks a conversion by molar mass, not a printed value. Where “and” joins values, the source holds several entries; their conditions need not be identical. Equal entries are not always repeated. Each block holds one compound with its values, some of them ahead of it.

Tests used:
Assay in all cases: ≥ marks a high value that may be exact or a test limit, other limits are often not marked, values filed in µg/mL are converted to µM
Acinetobacter baumannii = test system: Acinetobacter baumannii
[1] = test system: Escherichia coli ATCC 25922
[2] = test system: Pseudomonas aeruginosa ATCC 10662
[3] = test system: Staphylococcus aureus ATCC 25923
Staphylococcus aureus = test system: Staphylococcus aureus
[4] = test system: Staphylococcus epidermidis ATCC 1435
[5] = test system: Acinetobacter baumannii ATCC 19606
[6] = test system: Candida albicans ATCC 90028
[7] = test system: Cryptococcus neoformans var. grubii H99
Escherichia coli K-12 = test system: Escherichia coli K-12
[8] = test system: Klebsiella pneumoniae ATCC 700603
[9] = test system: Pseudomonas aeruginosa ATCC 27853
[10] = test system: Staphylococcus aureus ATCC 43300
[11] = test system: Staphylococcus aureus JE2
[12] = test system: Escherichia coli DH5alpha
[13] = test system: Escherichia coli NBRC 3972
[14] = test system: Proteus vulgaris NBRC 3045
[15] = test system: Pseudomonas aeruginosa NBRC 13275
[16] = test system: Staphylococcus epidermidis
[17] = test system: Cryptococcus neoformans B3501
[18] = test system: Enterococcus faecalis ATCC 29212
Escherichia coli = test system: Escherichia coli
[19] = test system: Klebsiella pneumoniae ATCC 13833
Klebsiella pneumoniae = test system: Klebsiella pneumoniae
[20] = test system: Microsporum canis MW768151
Microsporum canis = test system: Microsporum canis
Proteus mirabilis = test system: Proteus mirabilis
[21] = test system: Pseudomonas aeruginosa PA002
[22] = test system: Pseudomonas aeruginosa PA006
[23] = test system: Pseudomonas aeruginosa PAO1
[24] = test system: Staphylococcus cohnii MW767053
[25] = test system: Staphylococcus epidermidis ATCC 12228
[26] = test system: Staphylococcus haemolyticus
[27] = test system: Staphylococcus pseudintermedius MW767056
[28] = test system: Staphylococcus pseudintermedius
Staphylococcus sciuri = test system: Staphylococcus sciuri
Staphylococcus simulans = test system: Staphylococcus simulans
[29] = test system: Trichophyton mentagrophytes
[30] = test system: Trichophyton rubrum ATCC 28189
Aspergillus fumigatus = test system: Aspergillus fumigatus
Bibersteinia trehalosi = test system: Bibersteinia trehalosi
[31] = test system: Corynebacterium pseudotuberculosis ATCC 19410
[32] = test system: Mannheimia haemolytica Serovar 1
[33] = test system: Mannheimia haemolytica Serovar 2
[34] = test system: Mannheimia haemolytica Serovar 6
Pasteurella multocida = test system: Pasteurella multocida
[35] = test system: Salmonella enterica subsp. arizonae

MIC (Acinetobacter baumannii): 1.2 µM (≈ 3.1 µg/mL) | MIC [1]: 1.2 µM (≈ 3.1 µg/mL) | MIC [2]: 9.66 µM (≈ 25 µg/mL) | MIC [3]: 2.4 µM (≈ 6.2 µg/mL) | MIC (Staphylococcus aureus): 2.4 µM (≈ 6.2 µg/mL) | MIC [4]: 1.2 µM (≈ 3.1 µg/mL)
Compound: CC[C@H](C)[C@H](NC(=O)CNC(=O)[C@H](CCCN=C(N)N)NC(=O)[C@H](Cc1ccccc1)NC(=O)[C@@H](NC(=O)[C@H](Cc1cnc[nH]1)NC(=O)[C@H](Cc1cnc[nH]1)NC(=O)[C@H](Cc1ccccc1)NC(=O)[C@@H](N)Cc1ccccc1)[C@@H](C)CC)C(=O)N[C@H](C(=O)N[C@@H](Cc1cnc[nH]1)C(=O)N[C@H](C(=O)NCC(=O)N[C@@H](CCCCN)C(=O)N[C@H](C(=O)N[C@@H](CCCCN)C(=O)N[C@@H](Cc1cnc[nH]1)C(=O)N[C@@H](CCCN=C(N)N)C(=O)N[C@@H](CC(C)C)C(=O)N[C@H](C(=O)N[C@H](C(=O)NCC(N)=O)[C@@H](C)O)C(C)C)[C@@H](C)O)C(C)C)C(C)C [FFHHIFRGIVHVGKTKHRLVTG]

MIC [12]: 25 µM (≈ 55.8 µg/mL) | MIC [13]: 12.5 µM (≈ 27.9 µg/mL) | MIC [14]: ≥ 100 µM | MIC [15]: 3.12 µM (≈ 6.98 µg/mL) | MIC (Staphylococcus aureus): 100 µM (≈ 223 µg/mL) | MIC [16]: 6.25 µM (≈ 14 µg/mL)
Compound: CC(C)C[C@H](NC(=O)[C@H](CCCCN)NC(=O)CNC(=O)[C@H](CCCCN)NC(=O)[C@H](CC(C)C)NC(=O)[C@H](CCCCN)NC(=O)[C@H](CC(C)C)NC(=O)[C@H](CCCCN)NC(=O)[C@H](C)NC(=O)CNC(=O)[C@H](CC(C)C)NC(=O)[C@H](CCCCN)NC(=O)[C@H](CC(C)C)NC(=O)[C@H](CCCCN)NC(=O)[C@H](C)NC(=O)[C@H](CC(C)C)NC(=O)[C@H](CCCCN)NC(=O)[C@H](CCCCN)NC(=O)[C@@H](N)CCCCN)C(=O)NCC(=O)N[C@@H](C)C(N)=O [KKKLAKLKLGAKLKLKGKLGA]

More lines, now with the values behind:

Compound: CC[C@H](C)[C@H](NC(=O)[C@@H](NC(=O)[C@H](CO)NC(=O)[C@H](C)NC(=O)[C@@H](NC(=O)[C@H](CCCCN)NC(=O)[C@H](CCCN=C(N)N)NC(=O)[C@@H](NC(=O)[C@@H](NC(=O)[C@H](CC(=O)O)NC(=O)[C@H](Cc1ccccc1)NC(=O)[C@H](CC(C)C)NC(=O)CN)C(C)C)[C@@H](C)CC)C(C)C)C(C)C)C(=O)NCC(=O)NCC(=O)N[C@@H](CC(C)C)C(=O)O [GLFDVIRKVASVIGGL]
MIC [5]: 19.5 µM (≈ 32 µg/mL) | MIC [6]: 19.5 µM (≈ 32 µg/mL) | MIC [7]: 9.73 µM (≈ 16 µg/mL) | MIC [1]: > 19.5 µM | MIC (Escherichia coli K-12): 19.5 µM (≈ 32 µg/mL) | MIC [8]: > 19.5 µM | MIC [9]: > 19.5 µM | MIC [10]: 9.73 µM (≈ 16 µg/mL) | MIC [11]: 9.73 µM (≈ 16 µg/mL)

Compound: CC[C@H](C)[C@H](NC(=O)[C@H](Cc1ccccc1)NC(=O)CNC(=O)[C@H](CCCCN)NC(=O)[C@@H](NC(=O)[C@H](Cc1ccccc1)NC(=O)[C@H](CCCCN)NC(=O)[C@H](CCCN=C(N)N)NC(=O)[C@@H](NC(=O)[C@@H](NC(=O)[C@H](CCCN=C(N)N)NC(=O)[C@@H](NC(=O)[C@H](C)NC(=O)[C@H](Cc1c[nH]c2ccccc12)NC(=O)[C@@H](N)CCCCN)C(C)C)[C@@H](C)CC)[C@@H](C)CC)[C@@H](C)CC)C(=O)N[C@@H](CO)C(N)=O [KWAVRIIRKFIKGFIS]
MIC [6]: 1.67 µM (≈ 3.28 µg/mL) | MIC [17]: 2 µM (≈ 3.92 µg/mL) | MIC [18]: 8.15 µM (≈ 16 µg/mL) | MIC [1]: 2.04 µM and 2 µM | MIC (Escherichia coli): 1.44 µM and 2.88 µM | MIC [19]: 1 µM (≈ 1.96 µg/mL) | MIC (Klebsiella pneumoniae): 5.77 µM (≈ 11.3 µg/mL) | MIC [20]: 0.51 µM (≈ 1 µg/mL) | MIC (Microsporum canis): 1.44 µM (≈ 2.83 µg/mL) | MIC (Proteus mirabilis): ≥ 65.2 µM | MIC [9]: 4.08 µM and 1.67 µM and 4 µM | MIC [21]: 8.15 µM (≈ 16 µg/mL) | MIC [22]: 2.04 µM (≈ 4 µg/mL) | MIC [23]: 4.08 µM (≈ 8 µg/mL) | MIC [24]: 16.3 µM (≈ 32 µg/mL) | MIC [25]: 1 µM (≈ 1.96 µg/mL) | MIC [26]: ≥ 65.2 µM | MIC [27]: ≥ 130 µM | MIC [28]: ≥ 32.6 µM | MIC (Staphylococcus sciuri): ≥ 130 µM | MIC (Staphylococcus simulans): ≥ 32.6 µM | MIC [29]: 0.51 µM (≈ 1 µg/mL) | MIC [30]: 8 µM (≈ 15.7 µg/mL)

Compound: CC[C@H](C)[C@H](NC(=O)[C@H](Cc1cnc[nH]1)NC(=O)[C@@H](NC(=O)[C@@H](NC(=O)[C@H](CCCCN)NC(=O)[C@H](CCCN=C(N)N)NC(=O)[C@@H](NC(=O)[C@@H](NC(=O)[C@H](CCCN=C(N)N)NC(=O)[C@H](CCCN=C(N)N)NC(=O)[C@@H](N)CC(C)C)[C@@H](C)CC)[C@@H](C)CC)[C@@H](C)CC)[C@@H](C)CC)C(=O)N[C@H](C(=O)N[C@@H](CCCCN)C(=O)N[C@@H](CCCCN)C(=O)O)[C@@H](C)CC [LRRIIRKIIHIIKK]
MIC (Aspergillus fumigatus): 18.5 µM (≈ 33.3 µg/mL) | MIC (Bibersteinia trehalosi): 11.1 µM (≈ 20 µg/mL) | MIC [31]: 11.1 µM (≈ 20 µg/mL) | MIC (Klebsiella pneumoniae): > 11.1 µM | MIC [32]: 2.78 µM (≈ 5 µg/mL) | MIC [33]: 3.72 µM (≈ 6.7 µg/mL) | MIC [34]: 9.28 µM (≈ 16.7 µg/mL) | MIC (Pasteurella multocida): 5.55 µM (≈ 10 µg/mL) | MIC [23]: 1.83 µM (≈ 3.3 µg/mL) | MIC [35]: 11.1 µM (≈ 20 µg/mL) | MIC (Staphylococcus aureus): > 11.1 µM
